In patent US20180344639A1, “HYPOXIA-TARGETED POLYMERIC MICELLES FOR CANCER THERAPY AND IMAGING” (priority 2012, published 2018) one finds drug released and Encapsulation efficiency data, which are given here for 1 molecule.

A short description of data set [1]: Release of drug from the polymeric micelle during dialysis, by change in absorbance. The format is physicochemical. The conditions noted are these: PMC from Example I; 24 hours dialysis; tris buffer (pH 7.4) given for Drug A only. On the procedure: (§1) The polymer is dissolved in deionized water or an aqueous buffer at a concentration of 0.010 g/mL. Drugs A is dissolved in DMSO at a concentration of 5 μg/μl. Drug A is added dropwise to the polymer solution with constant stirring at room temperature. The drugs are added over the course of 60 minutes resulting in a 2-5 fold molar excess over polymer. The solution is centrifuged to remove any precipitates and transferred to dialysis tubing with 10,000 MWCO. The solution is dialyzed against an aqueous buffer (50× volume) for 30 minutes.
(§2) The absorbance of the polymer-drug solution and dialysis buffer are recorded and compared to respective pre-dialysis samples by a UV/Vis spectrophotometer (polymer absorbance=280 nm; Drug A absorbance=450 nm). The encapsulation efficiency is calculated from the change in absorbance of the drug after this initial dialysis. The polymer-drug solution is dialyzed further with fresh buffer (50× volume) with multiple readings over the course of 72 hours with 4 buffer changes. The rate at which the drug is released from the polymeric micelle is calculated by the change in absorbance of the drug over time from the polymer-drug solution and dialysis buffer.
(§3) Encapsulation of Drug B is carried out by the same dialysis procedure as described in Example III for Drug A. Drug B is dissolved in DMSO to a stock solution of 2.5 mg/ml. […]

A short description of data set [2]: Encapsulation efficiency of drug in PMC of Example I by dialysis and UV/Vis absorbance. The format is physicochemical. To be noted: PMC from Example I; dialysis 10,000 MWCO; tris buffer (pH 7.4) given for Drug A only. The protocol: as §1, §2, §3

Structures are written as SMILES.

In the case of `CCCNC(=O)c1c(C)[nH]c(/C=C2\C(=O)Nc3ccc(F)cc32)c1C` [Drug A], the drug released in data set [1] came to 50%. The Encapsulation efficiency result in data set [2] is “greater than 80%”.
